From patent US6958360B2, “Attractant pheromone for the Colorado potato beetle” (The United States of America as represented by the …, priority 2001, dated 2005)
“Also recorded” adds a separate entry of the source. Marks after values point to notes of the source that are not given here.

How the values were obtained:
[1] = tested on: antennal olfactory receptors (short sensillum on the penultimate antennal segment of a CPB); assay: Single sensillum (single cell) recording of receptor neuron response; design: species or system Leptinotarsa decemlineata; settings: 100 ng source load; solvent control 8
Experimental: (§1) Sensitivity of antennal olfactory receptors for the racemate and optical isomers of the male specific compound were tested using coupled GC/EAD and single sensillum recording techniques. GC/EAD tests involved injection of 1 μl of serial dilutions of 3,7-dimethyl-2-oxo-oct-6-ene-1,3-diol (CPB I).

CPB adult antenna = assay: Coupled GC/electroantennogram detection (GC/EAD, EAG); design: species or system Leptinotarsa decemlineata
Experimental: Vertical bars represent standard errors (N=6, 3 males and 3 females).
GC/EAD analysis of volatile collections: One microlitre samples of volatile collections were injected into a Hewlett Packard™ Model 5890A gas chromatograph (GC) equipped with an HP-5 capillary column (crosslinked 5% PH ME Siloxane; film thickness 0.25 μm; length 30 m; i.d. 0.25 mm) and flame ionization detector (FID). The effluent from the column was split using a Gerstel™ GraphPack-3D/2 splitter with a ratio of ˜1 to the GC (FID): 4 to an electroantennogram preparation of a CPB adult (EAD). The EAD preparation was an adult CPB antenna removed and mounted between two glass capillary electrodes filled with 0.1M NaCl. Ag—AgCl wires in the glass capillaries. An effluent conditioning assembly to carry GC effluent over a CPB antennal preparation, hardware, and software for data collection and analyses using a computer were obtained from SYNTECH (Hilversum, the Netherlands). After an initial temperature of 50° C. held for 2 minutes following injection, the GC oven increased at 15° C./min to 235° C. which was held for 8 minutes.
as §1

[2] = tested on: Colorado potato beetle (CPB); assay: Open Y-track olfactometer laboratory behavioral bioassay, pheromone and plant volatile blends; type: in vivo, Leptinotarsa decemlineata
Experimental: Insects: All life stages were reared on potted potato plants kept in screened cages inside incubators set for 16L:8D, 25° C. during photophase, 23° C. during scotophase, and 80% R.H. Upon emergence adult beetles were kept individually in plastic cups with perforated plastic snap-on lids, and provided with clean pieces of paper toweling and potato foliage daily.
Bioassay apparatus and protocol: Stock solutions of test compounds, e.g. (S)-CPB I, and individual plant volatiles 2-phenylethanol, nonanal and (±)-linalool, were prepared at 10 μg/μl in hexane. Serial dilutions were made to obtain a test solution of 0.1 μg/μl. Each bioassay treatment of CPB I used a 10 μl aliquot of test solution, or a total of 1 μg of neat material. A […] stock solution of a 3-component blend of selected potato volatiles, (Z)-3-hexenyl acetate, linalool, and methyl salicylate, was prepared as follows: 8.3 μl of each was added to 975 μl of mineral oil, creating a solution of 25 μg of blend components/μl. This stock solution was diluted to obtain a solution of 2.5 μg of blend components/μl. Each bioassay treatment of blend used a 20 μl aliquot of test solution, or a total of 50 μg (16.67 μg/component) of the components.
Prior to testing at age 7-14 days, unmated insects were held individually in 5.5 oz. cups, provided with fresh potato foliage on a continuous basis, and maintained under incubator conditions of 16L:8D, 80-90% R.H., and “day” and “night” temperatures of 25° C. and 23° C., respectively. On the day of testing, insects were transferred to smaller 1 oz. cups and held for 1-3 hrs with moist filter paper but no foliage, then held in darkness for an additional 1-2 hrs.
Individual chemicals and chemical blends were tested for activity in an open Y-track olfactometer modified after Visser and Piron (1998) and described in detail by Dickens (1999; 2000; and Dickens, J. C., et al., Breaking a paradigm: male-produced aggregation pheromone for Colorado potato beetle. Journal of Experimental Biology, 205: 1925-1933 (2002)). In brief, odorous stimuli emanating from synthetic blends on filter paper discs (2.5 cm dia.; Whatman™ #1 filter paper) in 500 ml Ehrlenmeyer flasks were delivered to either side of the device. Test odorants were pipetted onto 3-cm diam. filter paper disks, which were then transferred, using long forceps, into the Erlenmeyer flasks used in the assay. If only a single test solution were being used per treatment, it was placed in the center of the filter paper; if 2 test solutions were being used per treatment, the mineral oil solution was placed in the center, and the hexane solution was spotted around the edge of the filter paper disk. Treatments were replaced after 30 minutes of testing in order to minimize variation in odor concentrations. The location of the chemical blend was switched from one side of the bioassay apparatus to the other side midway through each run in order to avoid bias not associated with the experimental treatment. Hydrocarbon free air that was humidified by passing through distilled water carried the odor molecules to either arm of the bioassay apparatus. Airflow was regulated to 1 l/min by flow meters. Experiments were conducted in a darkened room at 22° C. in which the only source of light was that associated with the bioassay device. For all bioassays at least 40 adults (20 males and 20 females) were tested. Orientation was scored as soon as the test insect had moved completely from the horizontal to one of the 45° angle extension arms of the bioassay device. Following each test, the bioassay device was cleaned with acetone to remove contamination left by the insect.
Statistical analysis: Laboratory bioassays were assessed for significant differences by the hypothesis on binomial proportions based on the standard normal approximation (Brase and Brase, 1983).

CC(C)=CCC[C@](C)(O)C(=O)CO [(S)-CPB I, (S)-3,7-dimethyl-2-oxo-oct-6-ene-1,3-diol]
action potentials during 500 msec following the initial phasic increase [1]: 25 action potentials
Mean EAG (in words) (CPB adult antenna; 10 ng injection, males and females combined): significantly greater for the (S)-enantiomer than the (R)-enantiomer
EAD response to compound in volatile collections (in words) (CPB adult antenna; volatiles from potato plants / CPB feeding on plant): a large EAD was consistently present
Female % to A. ([2]; B = Control (solvent)): 90%**
Male % to A. ([2]; B = Control (solvent)): 90%**
Total % to A. ([2]; B = Control (solvent)): 90%**
Female % to A. ([2]; B = Plant blend): 50%
Male % to A. ([2]; B = Plant blend): 50%
Total % to A. ([2]; B = Plant blend): 50%
attraction / preference (in words) ([2]; comparator as in the treatment pair of Table 2): attracted both male and female beetles; also recorded: no preference was shown for either attractant
